Measured values: patent US5789188A, “Tetracycline-efflux pump inhibitor screening methods” (priority 1996, dated 1998)
Values after ≈ are worked out from the molar mass of the structure shown. “Also recorded” adds a separate entry of the source. Non-standard residues stand in square brackets, D forms with d. Residues, ends and D or L forms follow the SMILES beside them. Orn(N5-OH,N5-Ac) = CC(=O)N(O)CCC[C@H](N)C(=O)O

What was measured:
[1] = system: strain KB4 or KB5; experiment: Synergy Assay, plate assay (agar with 5 μg/ml of tetracycline); format: cell-based, E. coli; conditions: for response in the Synergy Assay: 5 μg/ml of tetracycline
Description: Two types of assays for pump inhibitors are designed using this type of screening organism. The first is a Synergy Assay, which determines the ability of a compound or composition to kill the organism in combination with tetracycline. […] In brief, in a Synergy Assay, the screening cells are treated as described above for the tetracycline assay, except that the agar medium contains 5 μg/ml of tetracycline which is near the MIC for the strains to be used in the screen. […] Alternatively, cells are treated as described above for the tetracycline liquid assay, except that cells are shifted to a medium containing 5 μg/ml of tetracycline.
(§1) In the Synergy Assay, cells are treated as above for the plate assay, except that agar medium contains 5 μg/ml of tetracycline, near the MIC for strain KB4 or KB5. […] Alternatively, cells are treated as above for the liquid assay, except that cells are shifted to medium containing 5 μg/ml of tetracycline.

[2] = system: tetracycline efflux pump (strain KB4 or KB5); experiment: Inhibition Assay, plate assay (agar with 5 ng/ml of tetracycline); as to Inhibition Assay response: key: ±: Possible positive; +: Weak positive; ++: Stronger positive; -: Negative; format: cell-based, E. coli; conditions: for response in the Inhibition Assay: 5 ng/ml of tetracycline
Description: (§2) To detect tetracyclines, a plate assay is developed that is similar to one described previously (11). Cells are grown in Luria Broth (adjusted with NaOH to pH 7.5) with 25 μg/ml of kanamycin to a cell density of 0.5 absorbance units (600 nm). A 25 ml sample of the culture is harvested by centrifugation and resuspended in 1 ml of broth. The cells are mixed with 25 ml of soft agar (1%, wt/vol) and poured onto 100 ml of LB (pH 7.5)+ kanamycin, within a 22 cm^2 NUNC plate (Corning). Samples are applied by spotting from 2 to 15 μl, or by applying a disc impregnated with a compound, and the plate is incubated for 3-4 hours at 37° C. The plates are overlaid with a solution containing 13.5 mg of 6-bromo-2-naphthyl-β-D-galactopyranoside side and 86.5 mg of fast blue RR (Sigma) dissolved in 2 ml of dimethylsulfoxide, to which 25 ml of soft agar is added. β-Galactosidase is detected by the presence of a purple spot.
Two assays are developed for detecting inhibitors of the tetA gene product (using strain KB5), or the tetK gene product (using strain KB4). In the Inhibition Assay, cells of strain KB4 or KB5 are treated as described in the tetracycline screen above, except that the agar medium contains 5 ng/ml of tetracycline. Alternatively a Liquid Assay is also developed. Cells are first grown in LB (pH 7.5). Then cells are shifted to medium containing 5 ng/ml of tetracycline, and tetracycline-containing samples are added to aliquots. Cells are then incubated and assayed as described for the Tetracycline Assay. […] However, the intracellular concentration is reduced in tetracycline resistant strains due to the action of the efflux pump, so more tetracycline would be required in the medium to accumulate sufficient tetracycline inside the cell to induce. The Inhibition Assay is designed to detect compounds that cause β-galactosidase induction in the presence of sub-inducing levels of tetracycline for a resistant strain.

[3] = system: E. coli MC1061 containing pGG57; experiment: microbe, parasite or virus in culture; format: cell-based; conditions: Escherichia coli, read-out: MIC (LD 90) of Maximally Induced tetK, pGG57
Description: (§3) E. coli MC1061 containing either pGG57, pCBSal or pGG75 were used to determine the MIC (LD 90) for tetracycline as well as six tetracycline analogs. […] MIC studies were performed in the presence of 0.01 mM IPTG for E. coli MC1061 containing pGG57. […] All of these MIC studies were done in duplicate.

[4] = system: E. coli MC1061 containing pCBSal; experiment: MIC (LD 90) of maximally induced tetA (plasmid pCBSal); format: cell-based; conditions: Escherichia coli, read-out: MIC (LD 90) of Maximally Induced tetA, pCBSal
Description: as §3

[5] = system: E. coli MC1061 containing pGG75; experiment: MIC (LD 90) of maximally induced tetC (plasmid pGG75); format: cell-based; conditions: Escherichia coli, read-out: MIC (LD 90) of Maximally Induced tetC, pGG75
Description: as §3

[6] = system: strain KB3ind; format: cell-based, E. coli; conditions: for response in the Tetracycline Assay (β-galactosidase induction): strain KB3ind, plate assay (plate or liquid assay); as to Induction Assay response: key: ±: Possible positive; +: Weak positive; ++: Stronger positive; -: Negative
Description: as §2

[7] = system: NK5031 (λStet158-50); experiment: Plate assay with control strain containing the cI wild type allele; format: cell-based, E. coli; conditions: 3 μl samples, up to 22.5 ng bleomycin, 150 ng mitomycin C or cinodine
[8] = system: strain KB4; experiment: Growth in LB medium with nocardamine, strain KB4; format: cell-based, E. coli; conditions: strain KB4, 5 μg/ml of tetracycline
Description: (§4) Cells are grown in LB medium lacking tetracycline, as described in the text, and then aliquots are added to medium containing no tetracycline, or a sub-inhibitory concentration for the particular strain. Nocardamine (μg/ml) is present or absent as indicated.

[9] = system: Tn10 derivative of strain KB3ind; experiment: Growth in LB medium with nocardamine, Tn10 strain; format: cell-based, E. coli; conditions: for effect on growth in combination with tetracycline: Tn10 strain, 20 μg/ml or 25 μg/ml of tetracycline; for effect on growth, tetracycline absent: no tetracycline in medium
Description: as §4

[10] = system: strain KB4 or KB5; experiment: Synergy Assay, liquid assay (5 μg/ml of tetracycline); format: cell-based, E. coli; conditions: liquid culture
Description: Inhibitory activity is assayed in liquid culture by growing strain KB4 in medium lacking tetracycline and then transferring to medium containing 5 ng/ml of tetracycline, a sub-inducing level of tetracycline due to the action of the efflux pump. Nocardamine is also added as indicated. After 4 generations of growth, the specific activity of β-galactosidase is determined in Miller Units (10). […] Alternatively, aliquots of KB4 are transferred to a medium containing 5 μg/ml of tetracycline and the nocardamine concentration indicated.
as §1

[11] = system: strain KB3ind; experiment: Growth in LB medium with nocardamine, strain KB3ind; format: cell-based, E. coli; conditions: tetracycline-sensitive strain KB3ind, 0.5 μg/ml of tetracycline
Description: FIG. 10 (Parts A, B and C) illustrates the effect of nocardamine on the growth of tetracycline sensitive and resistant cells. Cells are grown in LB medium lacking tetracycline, as described in the text, and then aliquots are added to medium containing no tetracycline, or a sub-inhibitory concentration for the particular strain. Nocardamine (μg/ml) is present or absent as indicated. For strain KB3ind, the tetracycline-sensitive strain, the sub-inhibitory concentration of tetracycline is 0.5 μg/ml. For the Tn10 derivative of strain KB3ind, 20 μg/ml of tetracycline is the sub-inhibitory level. For strain KB4, the modestly tetracycline-resistant organism, 5 μg/ml of tetracycline is the sub-inhibitory concentration.

Row | Compound | response in the Synergy Assay [1] | response in the Inhibition Assay ([2]; plate assay) | MIC [3] | MIC [4] | MIC [5] | response in the Tetracycline Assay (β-galactosidase induction) [6] | further results
1 | C/C(=C/C(=O)N([O-])CCCC1NC(=O)CNC(=O)C(CO)NC(=O)C(CO)NC(=O)C(CCCN([O-])C(=O)/C=C(/C)CC(=O)O)NC(=O)C(CCCN([O-])C(=O)/C=C(\C)CC(=O)O)NC1=O)CC(=O)O.[Fe+3] (centres unmarked) [ferrichromeA] | test positive | test positive |  |  |  |  | 
2 | CN(C)[C@@H]1C(O)=C(C(N)=O)C(=O)[C@@]2(O)C(O)=C3C(=O)c4c(O)ccc(Cl)c4[C@@](C)(O)[C@H]3C[C@@H]12 [ChlorTc, chlortetracycline] |  |  | 40 µg/mL (≈ 83.5 µM) | 50 µg/mL (≈ 104 µM) | 40 µg/mL (≈ 83.5 µM) | capable of detecting | 
3 | CN(C)C1C(=O)C(C(N)=O)=C(O)C2(O)C(=O)C3=C(O)c4c(O)cccc4C(C)(O)C3C(O)C12 (centres unmarked) [oxyTc] |  |  | 250 µg/mL (≈ 543 µM) | > 300 µg/mL | 300 µg/mL (≈ 652 µM) |  | 
4 | Cc1c2c(c(O)c3c(O)cccc13)C(=O)C1(O)C(O)=C(C(N)=O)C(=O)C(N(C)C)C1C2 (centres unmarked) [AnhydroTc] |  |  | 2 µg/mL (≈ 4.69 µM) | 3 µg/mL (≈ 7.04 µM) | 2 µg/mL (≈ 4.69 µM) |  | 
5 | CN(C)c1ccc(O)c2c1C[C@H]1C[C@H]3[C@H](N(C)C)C(O)=C(C(N)=O)C(=O)[C@@]3(O)C(O)=C1C2=O [Minocycline] |  |  | 4 µg/mL (≈ 8.74 µM) | 14 µg/mL (≈ 30.6 µM) | 8 µg/mL (≈ 17.5 µM) | capable of detecting | 
6 | C[C@H]1c2cccc(O)c2C(O)=C2C(=O)[C@]3(O)C(O)=C(C(N)=O)C(=O)[C@@H](N(C)C)[C@@H]3[C@@H](O)[C@@H]21 [DoxyTc, doxycycline] |  |  | 7 µg/mL (≈ 15.8 µM) | 40 µg/mL (≈ 90 µM) | 20 µg/mL (≈ 45 µM) | capable of detecting | 
7 | CO[C@@]12[C@H](COC(N)=O)C3=C(C(=O)C(C)=C(N)C3=O)N1C[C@@H]1N[C@@H]12 [Mitomycin] |  |  |  |  |  | No β-galactosidase is detected | Inhibition Assay response ([2]; disc on assay plate): -; β-galactosidase induction in control strain (cI wild type allele) [7]: inducing β-galactosidase; Induction Assay response [6]: -
8 | CC(=O)N([O-])CCC[C@@H]1NC(=O)CNC(=O)CNC(=O)CNC(=O)[C@H](CCCN([O-])C(C)=O)NC(=O)[C@H](CCCN([O-])C(C)=O)NC1=O.[Fe+3] [ferrichrome] (cyclo(GGG[Orn(N5-OH,N5-Ac)][Orn(N5-OH,N5-Ac)][Orn(N5-OH,N5-Ac)])) | test positive | test positive |  |  |  |  | 
9 | bleomycin |  |  |  |  |  | No β-galactosidase is detected | β-galactosidase induction in control strain (cI wild type allele) [7]: inducing β-galactosidase
10 | CN(C)[C@@H]1C(=O)C(C(N)=O)=C(O)[C@@]2(O)C(=O)C3=C(O)c4c(O)cccc4C[C@H]3C[C@@H]12 [6-demethyl 6-deoxyTc, 6-demethyl-6-deoxytetracycline] |  |  | 7 µg/mL (≈ 16.9 µM) | 20 µg/mL (≈ 48.3 µM) | 20 µg/mL (≈ 48.3 µM) | capable of detecting | 
11 | cinodine |  |  |  |  |  | No β-galactosidase is detected | β-galactosidase induction in control strain (cI wild type allele) [7]: inducing β-galactosidase
12 | O=C1CCC(=O)N(O)CCCCCNC(=O)CCC(=O)N(O)CCCCCNC(=O)CCC(=O)N(O)CCCCCN1 [nocardamine] | differential growth inhibition | induction |  |  |  | no response | response in the Synergy Assay ([1]; listed as Nocardamine): detected; amount sufficient to detect activity in the Synergy Assay ([1]; strains KB4 and KB5): One; effect on growth in combination with tetracycline [8]: severe growth inhibition; response in the Inhibition Assay ([2]; plate assay, listed as Nocardamine): detected; amount sufficient to detect activity in the Inhibition Assay ([2]; plate assay, strains KB4 and KB5): One; effect on growth in combination with tetracycline [9]: severe growth inhibition; also recorded: inhibits growth; effect on growth in combination with tetracycline ([9]; listed as Nocardamine): inhibits the growth; effect on growth, tetracycline absent [9]: little or no effect; effect on growth, tetracycline absent ([9]; listed as Nocardamine): little effect; effect on β-galactosidase production / growth [10]: marked decrease in β-galactosidase; also recorded: growth inhibition; effect on growth in combination with tetracycline [11]: affects the growth; also recorded: is affected
13 | CCCCc1ccc(C(=O)O)nc1 [fusaric acid] | do not test positive | do not test positive |  |  |  |  | 
